This note sets out measurements from patent EP4678638A1, “NEW E3 UBIQUITIN LIGASE LIGAND, PROTEIN DEGRADATION AGENT AND USE THEREOF” (priority 2023, dated 2024).

The subject of assay [1] is MV-4-11. Put plainly: CCK-8 proliferation, MV-4-11. The following applies: Homo sapiens, MV4-11. Format: cell-based, Human. Here is the method: (§1) The tumor cells used herein were cultured in a cell culture medium listed in table A1 at 37°C in an incubator with 5% CO2. Prior to experimentation, all cell lines used were correctly identified by STR profiling, and tested negative for mycoplasma contamination using a mycoplasma detection kit through routine screenings. Table A1. Tumor cells and cell culture medium used in the present disclosure
(§2) IC50 values of the compounds of the present disclosure (including the compounds in Table 1, and compounds of examples) were measured using the Meilun Cell Counting Kit-8 kit from Dalian Meilun Biotech Co., Ltd. Assay details are as follows: tumor cells were seeded in a 96-well plate at a density listed in Table A2. After 24h, 100 µL of the inoculated cells were treated with 0.5µL of the compounds of the present disclosure (including the compounds in Tables 1 and 2, and compounds of examples) at 10 different successively decreasing concentrations (starting at the highest concentration of 10µM; 5-fold serial dilutions). After the cells were treated with the compounds of the present disclosure for a period of time, the cell viability detection reagent was added to the culture medium for cell viability assessment according to the instructions provided with the CCK-8 kit. […] The growth inhibition of the compounds of the present disclosure on cells was plotted by Prism Graphpad software, and the IC50 values of the compounds of the present disclosure were calculated therefrom. […] Seeding protocol and treatment time for tumor cells

In assay [2] the test system is SR. Put plainly: CCK-8 proliferation, SR. The following applies: Homo sapiens; Table B10, compounds designed based on the IRAK4 inhibitors; SR cells; read-out: Inhibitory activity (IC50, nM) on tumor cell proliferation, SR. Format: cell-based, Human. In short, it runs like this:
(§3)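 Cells seeded, then after 24 h treated with 10 concentrations (top 10 µM, 5-fold serial dilution) for a line-specific time at 37°C, 5% CO2. Viability read by CCK-8; IC50 fitted from growth-inhibition curves.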

The test system of assay [3] is H2228. Put plainly: CCK-8 proliferation, NCI-H2228 (H2228). In kind it is cell-based. The conditions noted are these: Homo sapiens, NCI-H2228; CCK-8; 96 hours; read-out: Inhibitory activity (IC50) on tumor cell proliferation, H2228. In short, it runs like this: as §3
Assay [4] concerns PC-9. Put plainly: CCK-8 proliferation, PC-9. Format: cell-based, Human. The conditions noted are these: Homo sapiens, PC-9; CCK-8; 96 hours; read-out: Inhibitory activity (IC50) on tumor cell proliferation, PC-9. The procedure:
as §1, §2

For assay [5], the system named is H1975. Put plainly: CCK-8 proliferation, NCI-H1975 (H1975). Format: cell-based, Human. The following applies: Homo sapiens, NCI-H1975; CCK-8; 96 hours; read-out: Inhibitory activity (IC50) on tumor cell proliferation, H1975. In a few lines:
as §3

For assay [6], the target named is T1, CDK4 (Homo sapiens, UniProt P11802).
T1 construct: evaluate the effects of the compounds of the present disclosure on the expression of target proteins in cells; endogenous in cells; host or cells: MDA-MB-231
T1 sequence (P11802 whole entry): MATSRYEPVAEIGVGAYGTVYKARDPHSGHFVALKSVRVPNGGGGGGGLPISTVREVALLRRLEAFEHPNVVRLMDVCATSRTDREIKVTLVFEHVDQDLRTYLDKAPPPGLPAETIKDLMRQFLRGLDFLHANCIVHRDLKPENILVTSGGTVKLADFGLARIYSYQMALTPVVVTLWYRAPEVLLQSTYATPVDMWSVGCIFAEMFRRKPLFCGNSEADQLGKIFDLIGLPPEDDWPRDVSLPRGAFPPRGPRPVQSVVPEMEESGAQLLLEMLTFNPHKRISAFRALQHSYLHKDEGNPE
The assay is described as follows: Western blot degradation of CDK4 (MDA-MB-231 Cell). In kind it is cell-based. The conditions noted are these: Table D3. Here is the method:
(§4) Conventional Western blot assay was performed to evaluate the effects of the compounds of the present disclosure on the expression of target proteins in cells.
(§5) (1) Cell Seeding and Protein Harvesting: The selected cells were processed according to the cell seeding procedure and protein harvesting procedure in Table III-2. Table III-2 Cell Seeding and Protein Harvesting Procedures
(§6) (2) To the collected supernatant, 5X SDS sample loading buffer was added, followed by denaturation at 95°C for 5 minutes. The denatured samples were then separated by SDS-PAGE electrophoresis on a polyacrylamide gel. Proteins were transferred to a nitrocellulose membrane (0.45 µm NC membrane), blocked with blocking buffer at room temperature for 1 hour, and subjected to antibody incubation and development procedures according to the antibody manufacturer's instructions (Cell Signaling Technology).
(§7) Half-Maximal Degradation Concentration value (the drug concentration required for degrading proteins by 50%, abbreviated as DC50) reads method: comparing the grayscale values of Western blot bands from drug-treated samples with those from blank DMSO-treated controls, and identifying the drug concentration range at which the grayscale value is half that of the DMSO-treated control bands.
(§8) DC50 values can be calculated using ImageJ software to measure grayscale values of Western blot bands from drug-treated samples. The concentration-response curve is fitted to estimate the drug concentration corresponding to half the grayscale value.
(§9) Target protein remaining (%) refers to the percentage of target protein remaining in hPBMC cells after treatment with protein degrader compounds.
(§10) Calculation method for target protein remaining (%): Use ImageJ software to measure grayscale values of Western blot bands from drug (protein degrader)-treated samples. The grayscale value of drug-treated bands is divided by that of internal control protein bands, and the resulting quotient is normalized to obtain the relative percentage of remaining target protein after protein degrader treatment.
(§11) Target protein degradation rate (%) = 100% - target protein remaining (%).

For assay [7], the target named is T2, CDK6 (Homo sapiens, UniProt Q00534).
T2 construct: evaluate the effects of the compounds of the present disclosure on the expression of target proteins in cells; endogenous in cells; host or cells: MDA-MB-231
T2 sequence (Q00534 whole entry): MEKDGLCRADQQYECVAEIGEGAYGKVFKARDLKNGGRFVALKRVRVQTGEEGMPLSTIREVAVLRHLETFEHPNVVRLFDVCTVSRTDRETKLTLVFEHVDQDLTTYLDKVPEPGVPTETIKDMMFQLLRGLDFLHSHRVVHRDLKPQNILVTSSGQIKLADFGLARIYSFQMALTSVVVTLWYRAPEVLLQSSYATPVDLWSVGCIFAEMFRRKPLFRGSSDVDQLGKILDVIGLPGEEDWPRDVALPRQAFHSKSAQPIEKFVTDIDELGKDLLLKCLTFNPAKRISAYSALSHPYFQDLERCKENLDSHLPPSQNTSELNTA
Put plainly: Western blot degradation of CDK6 (MDA-MB-231 Cell). The conditions noted are these: Table D3. In kind it is cell-based. The procedure:
as §4, §5, §6, §7, §8, §9, §10, §11
(A western blot detects proteins with antibodies after separation by electrophoresis.)

For assay [8], the system named is CCRF-CEM. The assay is described as follows: CCK-8 proliferation, CCRF-CEM. Format: cell-based, Human. The following applies: Homo sapiens, CCRF-CEM; CCK-8; 96 hours; read-out: Inhibitory activity (IC50) on tumor cell proliferation, CCRF-CEM. The procedure: as §1, §2
The mark [9] stands for this setting: CCK-8, 72 or 96 hours, read-out: Inhibitory activity (IC50) on tumor cell proliferation, MV-4-11.

Where two headings read alike, the source gives them in different places.

As to `O=C1CCC(c2ccc(CN3CCC(n4cc(NC(=O)c5cnn6ccc(N7CCOCC7)nc56)c(C(F)F)n4)CC3)cc2)C(=O)N1` (stereo not drawn) [GT-03813, N-(3-(difluoromethyl)-1-(1-(4-(2,6-dioxopiperidin-3-yl)benzyl)piperidin-4-yl)-1H-pyrazol-4-yl)-5-morpholinopyrazolo[1,5-a]pyrimidine-3-carboxamide], the IC50 was in the range of 100 to 500 nM in assay [1] (Table B10, compounds designed based on the IRAK4 inhibitors, MV-4-11 cells, read-out: Inhibitory activity (IC50, nM) on tumor cell proliferation, MV-4-11) and 100 to 500 nM in assay [2].
For `NC(=O)c1ncc(N2CCCCC2)nc1Nc1ccc(C2CCN(Cc3ccc(C4CCC(=O)NC4=O)c(F)c3)CC2)cc1` (stereo not drawn) [GT-04786, 3-((4-(1-(4-(2,6-dioxopiperidin-3-yl)-3-fluorobenzyl)piperidin-4-yl)phenyl)amino)-5-(piperidin-1-yl)pyrazine-2-carboxamide], the IC50 lay in the range of 0.1 to 0.5 µM in assay [3], 0.5 to 1 µM in assay [4] and 0.5 to 1 µM in assay [5].
With `NC(=O)c1ncc(N2CCCCC2)nc1Nc1ccc(C2CCN(Cc3ccc(N4CCC(=O)NC4=O)c(F)c3)CC2)cc1` [GT-04788, 3-((4-(1-(4-(2,4-dioxotetrahydropyrimidin-1(2H)-yl)-3-fluorobenzyl)piperidin-4-yl)phenyl)amino)-5-(piperidin-1-yl)pyrazine-2-carboxamide], the IC50 was in the range of 0.1 to 0.5 µM in assay [3], 0.1 to 0.5 µM in assay [4] and 0.5 to 1 µM in assay [5].
As to `NC(=O)c1ncc(N2CCCCC2)nc1Nc1ccc(C2CCN(Cc3ccc(N4CCC(=O)NC4=O)cc3)CC2)cc1` [GT-04789, 3-((4-(1-(4-(2,4-dioxotetrahydropyrimidin-1(2H)-yl)benzyl)piperidin-4-yl)phenyl)amino)-5-(piperidin-1-yl)pyrazine-2-carboxamide], the IC50 in assay [3] fell in the range of 0.1 to 0.5 µM; in assay [4] it was 0.1 to 0.5 µM; in assay [5] it was 0.5 to 1 µM.
Take `CN1CCN([C@@H]2CCCN(c3cnc(C(N)=O)c(Nc4ccc(C5CCN(Cc6ccc(C7CCC(=O)NC7=O)cc6)CC5)cc4)n3)C2)C1=O` (stereo partly drawn) [GT-04798, 3-((4-(1-(4-(2,6-dioxopiperidin-3-yl)benzyl)piperidin-4-yl)phenyl)amino)-5-((R)-3-(3-methyl-2-oxoimidazolidin-1-yl)piperidin-1-yl)pyrazine-2-carboxamide]: the IC50 lay in the range of 0.5 to 1 µM in assay [3], 0.1 to 0.5 µM in assay [4] and 0.5 to 1 µM in assay [5].
`CN1CCN([C@@H]2CCCN(c3cnc(C(N)=O)c(Nc4ccc(C5CCN(Cc6ccc(C7CCC(=O)NC7=O)c(F)c6)CC5)cc4)n3)C2)C1=O` (stereo partly drawn) [GT-04799, 3-((4-(1-(4-(2,6-dioxopiperidin-3-yl)-3-fluorobenzyl)piperidin-4-yl)phenyl)amino)-5-((R)-3-(3-methyl-2-oxoimidazolidin-1-yl)piperidin-1-yl)pyrazine-2-carboxamide]: the IC50 in assay [3] and in assay [4] was 0.5 to 1 µM throughout.
Consider `CN1CCN([C@@H]2CCCN(c3cnc(C(N)=O)c(Nc4ccc(C5CCN(Cc6ccc(N7CCC(=O)NC7=O)c(F)c6)CC5)cc4)n3)C2)C1=O` [GT-04801, (R)-3-((4-(1-(4-(2,4-dioxotetrahydropyrimidin-1(2H)-yl)-3-fluorobenzyl)piperidin-4-yl)phenyl)amino)-5-(3-(3-methyl-2-oxoimidazolidin-1-yl)piperidin-1-yl)pyrazine-2-carboxamide], for which the values for the IC50 in assay [3], in assay [4] and in assay [5] were 0.1 to 0.5 µM, 0.1 to 0.5 µM and 0.5 to 1 µM, respectively.
For the molecule `CN(C)C(=O)c1cc2cnc(Nc3ccc(N4CCN(Cc5ccc(C6CCC(=O)NC6=O)cc5)CC4)cn3)nc2n1C1CCCC1` (stereo not drawn) [GT-06339, 7-cyclopentyl-2-((5-(4-(4-(2,6-dioxopiperidin-3-yl)benzyl)piperazin-1-yl)pyridin-2-yl)amino)-N,N-dimethyl-7H-pyrrolo[2,3-d]pyrimidine-6-carboxamide], in assay [6], the “Degradation of substrate protein CDK4 (substrate protein remaining %)” value is given as “A (A is defined as 0% ≤ substrate protein remaining % ≤ 80%)”. In addition, the “Degradation of substrate protein CDK6 (substrate protein remaining %)” value in assay [7] was “A (A is defined as 0% ≤ substrate protein remaining % ≤ 80%)”.
Regarding `CN(C)C(=O)c1cc2cnc(Nc3ccc(N4CCN(Cc5ccc(N6CCC(=O)NC6=O)cc5)CC4)cn3)nc2n1C1CCCC1` [GT-06340, 7-cyclopentyl-2-((5-(4-(4-(2,4-dioxotetrahydropyrimidin-1(2H)-yl)benzyl)piperazin-1-yl)pyridin-2-yl)amino)-N,N-dimethyl-7H-pyrrolo[2,3-d]pyrimidine-6-carboxamide], in assay [6], the “Degradation of substrate protein CDK4 (substrate protein remaining %)” value was “A (A is defined as 0% ≤ substrate protein remaining % ≤ 80%)”. In addition, in assay [7], the “Degradation of substrate protein CDK6 (substrate protein remaining %)” value is given as “A (A is defined as 0% ≤ substrate protein remaining % ≤ 80%)”.
In the case of `CN(C)C(=O)c1cc2cnc(Nc3ccc(N4CCN(Cc5cccc(N6CCC(=O)NC6=O)c5)CC4)cn3)nc2n1C1CCCC1` [GT-06341, 7-cyclopentyl-2-((5-(4-(3-(2,4-dioxotetrahydropyrimidin-1(2H)-yl)benzyl)piperazin-1-yl)pyridin-2-yl)amino)-N,N-dimethyl-7H-pyrrolo[2,3-d]pyrimidine-6-carboxamide], the “Degradation of substrate protein CDK4 (substrate protein remaining %)” value in assay [6] is reported as “A (A is defined as 0% ≤ substrate protein remaining % ≤ 80%)”. Moreover, the “Degradation of substrate protein CDK6 (substrate protein remaining %)” value in assay [7] was “A (A is defined as 0% ≤ substrate protein remaining % ≤ 80%)”.
With `Nc1nc(Nc2ccc(S(=O)(=O)N3CCN(Cc4ccc(N5CCC(=O)NC5=O)cc4)CC3)cc2)nn1C(=O)c1c(F)cccc1F` [GT-06751, 1-(4-((4-((4-((5-amino-1-(2,6-difluorobenzoyl)-1H-1,2,4-triazol-3-yl)amino)phenyl)sulfonyl)piperazin-1-yl)methyl)phenyl)dihydropyrimidine-2,4(1H,3H)-dione], the figures for the IC50 in assay [1] (setting [9]) and in assay [8] were 500 to 1000 nM and 0.5 to 1 µM, respectively.
The like results for `Nc1nc(Nc2ccc(S(=O)(=O)N3CCN(Cc4ccc(N5CCC(=O)NC5=O)nc4)CC3)cc2)nn1C(=O)c1c(F)cccc1F` [GT-06754, 1-(5-((4-((4-((5-amino-1-(2,6-difluorobenzoyl)-1H-1,2,4-triazol-3-yl)amino)phenyl)sulfonyl)piperazin-1-yl)methyl)pyridin-2-yl)dihydropyrimidine-2,4(1H,3H)-dione] were, in that order, 500 to 1000 nM and 0.5 to 1 µM.
For `Cc1ccsc1C(=O)n1nc(Nc2ccc(S(=O)(=O)N3CCN(Cc4ccc(N5CCC(=O)NC5=O)cn4)CC3)cc2)nc1N` [GT-06860, 1-(6-((4-((4-((5-amino-1-(3-methylthiophene-2-carbonyl)-1H-1,2,4-triazol-3-yl)amino)phenyl)sulfonyl)piperazin-1-yl)methyl)pyridin-3-yl)dihydropyrimidine-2,4(1H,3H)-dione], the IC50 in assay [1] (setting [9]) fell in the range of 100 to 500 nM.
